Entries after “also recorded” stand apart in the source; their conditions may differ.

What all share (type): in vivo, Danio rerio
In series [1] the test system is zebrafish scn1Lab−/− mutant larvae. As to the kind of experiment: Noninvasive local field potential (LFP) recordings from the optic tectum. As to conditions: 22 h; for effect on cumulative duration of epileptiform events: Fig. 2B; for effect on frequency of epileptiform events: Fig. 2C. The method, then:
(§1) WT and homozygous zebrafish larvae (scn1Lab^−/− mutants) (6 dpf) were treated as described above. After incubation, larvae were immobilized in 2% low-melting-point agarose (Invitrogen) at room temperature (RT) and the epileptiform activities were measured by noninvasive local field potential (LFP) recording from the skin above the optic tectum (midbrain). The single glass electrode filled with artificial cerebrospinal fluid (ACSF) (124 mM NaCl, 2 mM KCl, 2 mM MgSO4, 2 mM CaCl2, 1.25 mM KH2PO4, 26 mM NaHCO3, and 10 mM glucose) was positioned on the skin above the optic tectum. Each recording lasted for 10 min. Epileptiform activity was quantified by using Clampfit 10.2 software (Molecular Devices Corporation, USA60), as reported previously by our group.

In series [2] the test system is WT zebrafish larvae. As to the kind of experiment: Toxicity evaluation: maximum tolerated concentration (MTC). As to conditions: WT larvae 6 dpf, 22 h incubation. On the procedure:
To evaluate the maximum tolerated concentration (MTC) of the individual compounds, a dozen of WT zebrafish larvae (6 dpf) were individually incubated in single wells of a 96-well plate, and treated with two-fold serial dilutions of the compounds. After 22 h incubation under standard conditions (28 °C, 14/10 light/dark cycle), larvae were individually examined for their touch response, posture, edema, signs of necrosis, morphology, heartbeat rate, and swim bladder condition under the microscope.

Series [3] deals with zebrafish scn1Lab−/− mutant larvae. Briefly: Locomotor activity measurement (behavioral assay) in the zebrafish DS model. The following applies: 22 h; for effect on epileptiform (hyper-)locomotor activity: single treatment at MTC, Fig. 2A. The method, then: (§2) WT and homozygous zebrafish larvae (scn1Lab^−/− mutants) (6 dpf) were individually positioned in single wells of a 96-well plate, and incubated in 100 μL VHC or VHC supplemented with compound or combined compounds for 22 h at 28 °C on a 14/10 h light/dark cycle. Then, the plates were placed immediately in an enclosed tracking device (ZebraBox Viewpoint, France), followed by a 30 min chamber habituation and 10 min recording. Locomotor activity over the total tracking period of 10 min was quantified by ZebraLab software (Software Viewpoint, France) using the lardist parameter (total distance in large movements) and 150 bkg (background) as a threshold, as reported previously by our group. For “small/large movement” and “inact/small movement”, a threshold was used of 6.4 and 3.3, respectively. Data were pooled from three or four independent experiments, with at least five larvae for each treatment and 20–30 larvae for each experimental condition, and expressed as “cm” per 100 s.

The test system of series [4] is zebrafish scn1Lab−/− mutant model of DS. As to the kind of experiment: Overall antiepileptic activity in the zebrafish scn1Lab−/− mutant model (locomotor and LFP read-outs together). As to conditions: 22 h incubation. The method, then: as §2, §1
[5] abbreviates: VPA single treatment at 250 µM, Fig. 3.

Regarding `CCNC(C)Cc1cccc(C(F)(F)F)c1` (racemic) [(±)-FFA, (±)-Fenfluramine], in series [1] ((±)-FFA single treatment at 3.13 µM, Fig. 3E, F), the “effect on epileptiform brain discharges” value is recorded as “not on the epileptiform brain discharges”. In series [1] (single treatment at MTC), the “effect on cumulative duration of epileptiform events” value (from here on “effect on cumulative duration”) was “decrease” and the “effect on frequency of epileptiform events” value (“effect on frequency” below) is on record as “dramatically attenuated”. Further, in series [2], the “maximum tolerated concentration (MTC)” value stood at 50 µM. Also, the “effect on locomotor activity” value in series [3] ((±)-FFA single treatment at 3.13 µM, Fig. 3D) was “significant effect”. Besides, the “effect on epileptiform (hyper-)locomotor activity” value in series [3] is recorded as “significantly counteracted”.
As to `C=C(C)[C@@H]1CCC(C)=C[C@H]1c1c(O)cc(CCCCC)cc1O` [CBD, cannabidiol], the “effect on epileptiform brain discharges” value in series [1] (single treatment at MTC) is reported as “failed to rescue; also recorded: not active”. Moreover, the “maximum tolerated concentration (MTC)” value in series [2] was determined as 6.25 µM. For the same molecule, the “effect on epileptiform (hyper-)locomotor activity” value in series [3] is reported as “failed to rescue; also recorded: not active”.
Regarding `NC(=O)N1c2ccccc2C=Cc2ccccc21` [CBZ, carbamazepine], the “effect on epileptiform brain discharges” value in series [1] (single treatment at MTC) was “no inhibitory effects”. Further, the “maximum tolerated concentration (MTC)” value in series [2] was 50 µM. Moreover, the “effect on epileptiform (hyper-)locomotor activity” value in series [3] was “no inhibitory effects”.
Take `CC[C@@H](C(N)=O)N1CCCC1=O` [LEV, levetiracetam]: the “effect on epileptiform brain discharges” value in series [1] (single treatment at MTC) is recorded as “failed to rescue”. In addition, the “maximum tolerated concentration (MTC)” value in series [2] was 10000 µM. Moreover, the “antiepileptic activity in the model (overall)” value in series [4] is recorded as “failed to suppress”. Also, the “effect on epileptiform (hyper-)locomotor activity” value in series [3] is “failed to rescue”.
In the case of `Nc1nnc(-c2cccc(Cl)c2Cl)c(N)n1` [LTG, lamotrigine], the “effect on epileptiform brain discharges” value in series [1] (single treatment at MTC) is “no inhibitory effects”. Also, in series [2], the “maximum tolerated concentration (MTC)” value was determined as 100 µM. In series [3], the “effect on epileptiform (hyper-)locomotor activity” value was “no inhibitory effects”.
Consider `O=C1NC(=O)C(c2ccccc2)(c2ccccc2)N1` [PHT, Phenytoin], for which, in series [1] (single treatment at MTC), the “effect on epileptiform brain discharges” value was “no inhibitory effects”. The “maximum tolerated concentration (MTC)” value in series [2] turned out to be 100 µM. Also, in series [3], the “effect on epileptiform (hyper-)locomotor activity” value was “no inhibitory effects”.
Turning to `CC(C)(C)C(O)/C=C/c1ccc2c(c1)OCO2` (stereo not drawn) [STP, stiripentol], the “effect on epileptiform brain discharges” value in series [1] (single treatment at MTC) is listed as “failed to rescue; also recorded: not active”. The “maximum tolerated concentration (MTC)” value in series [2] is 50 µM. Moreover, the “effect on epileptiform (hyper-)locomotor activity” value in series [3] is on record as “failed to rescue; also recorded: not active”.
As to `CC1(C)O[C@@H]2[C@@H](CO[C@@]3(COS(N)(=O)=O)OC(C)(C)O[C@@H]23)O1` [TPM, topiramate], in series [1] (single treatment at MTC), the “effect on cumulative duration” value was “decrease” and the “effect on frequency” value is on record as “dramatically attenuated”. In addition, in series [2], the “maximum tolerated concentration (MTC)” value worked out at 200 µM. Also, the “antiepileptic activity in the model (overall)” value in series [4] was “pronounced therapeutic activity”. Further, the “effect on epileptiform (hyper-)locomotor activity” value in series [3] is reported as “significantly counteracted”.
As for `CCCC(CCC)C(=O)O` [VPA, Valproate], in series [1] (setting [5]), the “effect on epileptiform brain discharges” value was “limited and statistically non-significant effect; also recorded: not active”. Further, in series [1] (single treatment at MTC), the “effect on cumulative duration” value is given as “complete rescue” and the “effect on frequency” value is “complete rescue”. In addition, the “maximum tolerated concentration (MTC)” value in series [2] worked out at 1000 µM. In addition, in series [3] (setting [5]), the “effect on locomotor activity” value was “limited and statistically non-significant effect; also recorded: not active”. Moreover, the “effect on epileptiform (hyper-)locomotor activity” value in series [3] is “complete rescue”.

Source of the values: PMC8302504, “Efficacy of Fenfluramine and Norfenfluramine Enantiomers and Various Antiepileptic Drugs in a Zebrafish Model of Dravet Syndrome” (Neurochemical Research, 2021).
